Laboratory results: patent publication US9394539B1, “Survival motor neuron gene (SMN2) mRNA constructs for post-transcription regulation” (PTC Therapeutics, Inc., priority 2007, dated 2016)

Key:
[1] = CellTiter-Glo cytotoxicity assay, Huh7 cells; type: cell-based; conditions: human, Huh7 hepatoblastoma cells, intermediate level of sensitivity
[2] = CellTiter-Glo cytotoxicity assay, U937 cells; type: cell-based; conditions: human, U937 monocyte cells, relatively sensitive cell line
Method: (§1) To evaluate cytotoxicity of the compounds in the neuroblastoma MC-IXC cell line, the CellTiter-Glo assay (Promega) was utilized. CellTiter-Glo determines the number of viable cells in culture based on quantification of the ATP present, which signals the presence of metabolically active cells. A reduction in cellular ATP is indicative of a cytotoxic or cytostatic effect. The compounds are tested in a 7-point dose response from 30 μM to 0.38 μM. Doxorubicin, a known cytotoxic compound, are used to address the sensitivity of the tested cell line. For relatively sensitive cell lines, such as U937 (a human monocyte cell line), the CC50 of doxorubicin ranges from 4 to 10 nM.

[3] = CellTiter-Glo cytotoxicity assay, MC-IXC cells; type: cell-based; conditions: human, MC-IXC neuroblastoma cells, CellTiter-Glo (ATP)
Method: as §1

[4] = test system: 5′-UTR and 3′-UTR of the target SMN2 mRNA; test: Luciferase reporter gene screening assay in stable 293H cells (fLuc flanked by SMN2 5′-UTR and 3′-UTR); type: cell-based, human; conditions: 7.5 μM test concentration, 24 hours, vs negative control (0.5% DMSO)
Method: Stable 293H cell lines containing the firefly luciferase (fLuc) gene flanked by one of SMN1 or SMN2 5′-UTR and 3′-UTR were cultured in DMEM medium supplemented with 10% FBS and 200 ug/mL hygromycin in Fisher T175 flasks. The cells were passaged every 4 days at 1:10 dilution. Cultures are kept in a 37° C. and 5% CO2 incubator. The cells were scaled-up over a three day period before performing the assay. Two confluent T175 flasks were split into twenty T175 flasks (1:10 dilution). Cells were harvested from each confluent flask by removing all of the media and adding 4 mL of warmed trypsin to dislodge the cells. After the cells were dislodged, 16 mL of selective media was added for a final volume of 20 mL. The cells were expanded by adding 2 mL of the harvested cells into ten new T175 flasks plus 25 ml, of selective media. The twenty new flasks are placed into the 37° C., 5% CO2 incubator. On the day the assay was performed, the media was removed from the flasks and 3 mL of warmed trypsin was added to dislodge the cells. After the cells were dislodged, 10 mL of nonselective media was to the flask. This was repeated for all twenty flasks and combined into one flask. 100 μL of the above cell culture plus 100 μL of Trypan Blue stain was counted on a hemocytometer. Cells were plated in the presence of 2 μL of a compound to be tested (at final concentration of 7.5 μM with 0.5% DMSO).
The firefly luciferase substrate used was Luc Lite Plus Packard #6016969. Luciferase activity was immediately assayed using a ViewLux Imaging system (Perkin Elmer).
The screening assay was performed by preparing a plates containing test compounds and controls, including wells that contained only vehicle or a high inhibitor concentration and wells that provided an 8-point dose response curve of puromycin, a non-specific standard control inhibitor. The cells were grown overnight in the presence of compounds or controls at 37° C. in 5% CO2. […] After 24 hours, the amount of luminescence was determined using a ViewLux Imaging system (Perkin Elmer). […]

Row | SMILES | CC50 [1] [nM] | CC50 [2] [nM] | CC50 [3] [nM] | Ratio (fold increase in target mRNA (SMN2) compared to negative control) [4]
1 | COc1cccc2c1C(=O)c1c(O)c3c(c(O)c1C2=O)C[C@@](O)(C(=O)CO)C[C@@H]3O[C@H]1C[C@H](N)[C@H](O)[C@H](C)O1 [doxorubicin] | 70 to 300 | 4 to 10 | 12 | –
2 | c1ccc(-n2ncc3c(NC4CCCCC4)ncnc32)cc1 [Cpd 4, N-cyclohexyl-1-phenyl-1H-pyrazolo[3,4-d]pyrimidin-4-amine] | – | – | – | ** (two stars (**) represent active compounds with a fold increase ratio in a range greater than 1.6 up to 1.8)
3 | CC(C)(C)C(C)(O)C#Cc1ccccc1 (stereo not drawn) [Cpd 2, 3,4,4-trimethyl-1-phenylpent-1-yn-3-ol] | – | – | – | ** (two stars (**) represent active compounds with a fold increase ratio in a range greater than 1.6 up to 1.8)
4 | Cc1ccc2nc(-c3ccc(/N=C/c4ccc(Br)s4)cc3)sc2c1 [Cpd 1, (E)-N-((5-bromothiophen-2-yl)methylene)-4-(6-methylbenzo[d]thiazol-2-yl)aniline] | – | – | – | * (one star (*) represents active compounds with a fold increase ratio in a range greater than 1.3 up to 1.6)
